Measured values reported in US20240271099A1, “METHOD FOR GENERATING HIGHLY FUNCTIONAL HEPATOCYTES BY DIFFERENTIATING HEPATOBLASTS” (INSTITUT NATIONAL DE LA SANTÉ ET DE LA RECHERCHE MÉDICALE, priority 2021, published 2024).

System: Glucose-6-Phosphatase activity
Assay: Glycogenolysis (glucose release after glucagon)
Format: cell-based, human
Conditions: 3D spheroids, 10 nmol/L glucagon, 3 h
Method: Glycogen Glucose metabolism. iHeps in 2D and 3D culture were investigated to assess the glycogen storage and glucose homeostasis regulation. Briefly, at specific time points along the 2D and 3D cultures, cells were treated for 3 h with a homemade low-glucose medium with or without 10 nmol/L glucagon (Sigma-Aldrich) to induce glucose release from the glycogen storage. Media samples were then collected and glucose concentration was determined using the High Sensitivity Glucose Assay Kit (Sigma). Periodic acid-Schiff (PAS) staining was then carried out on 2D and 8 μm cryosections of the very same samples. Specimens were fixed for 10 minutes at room temperature with 4% formol then treated with 1% periodic acid solution (Sigma-Aldrich) for 10 minutes. After washing, slides were immersed in Schiff's reagent (Fisher Scientific) for 30 minutes at RT. Before counterstaining with Mayer's Hematoxylin (Sigma), samples were washed carefully with Scott's tap water.
To investigate further, 3D specimens (iHeps and PHHs) were incubated for 4 h with 25 mM D-Glucose and 100 nM insulin to mimic hyperglycemia. Glycogen synthesis and storage were then determined using the Periodic Acid-Schiff (PAS) Staining Kit (Sigma-Aldrich) as described above. […] The media were then collected, and glucose levels determined using the High Sensitivity Glucose Assay Kit (Sigma).

glucagon
glycogenolysis, times higher than basal release (w/o glucagon): 3 times
